“And” between values parts separate entries of the source, which are not always exact repeats. Equal values may be shown once.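 Compound exposure: 48 hours, 5 concentrations, 96-well plates. GI50 marks 50% less growth. TGI: concentration producing complete growth inhibition.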
Tests used:
Experiment in all cases: NCI anticancer screen, dose series, 48 h
[1] = test system: MDA-MB-435
[2] = test system: OVCAR-8 ovarian
[3] = test system: HCT-116 colon
[4] = test system: HCC-2998 colon
[5] = test system: SN12C renal
[6] = test system: A498 renal
[7] = test system: DU-145 prostate
[8] = test system: CCRF-CEM leukemia
[9] = test system: COLO 205 colon
[10] = test system: IGROV1 ovarian

Row | Structure (SMILES) | GI50 [1] | TGI [1] | GI50 [2] | TGI [2] | GI50 [3] | TGI [3] | GI50 [4] | TGI [4] | GI50 [5] | TGI [5] | GI50 [6] | TGI [6] | GI50 [7] | TGI [7] | GI50 [8] | TGI [8] | GI50 [9] | TGI [9] | GI50 [10] | TGI [10]
1 | COc1ccc(-c2nn(-c3ccc(NC(=O)Nc4ccc(Cl)c(C(F)(F)F)c4)cc3)cc2-c2ccncc2)cc1Cl | 1.79 µM | 4.8 µM | 2.02 µM | 20.7 µM | 1.1 µM | 2.69 µM | 2.19 µM | 7.97 µM | 2.23 µM | 8.69 µM | 1.62 µM | 5.18 µM | 3.07 µM | 20.6 µM | 1.4 µM | 6.65 µM | 1.62 µM | 3.13 µM | 2.16 µM | 63.1 µM
2 | C=C(C(=O)O[C@H]1C(=O)C2=C(C)CCC3C(=C)C(=O)O[C@@H]3C2[C@]1(C)O)C1CC[C@]2(C)CCCC(=C)[C@H]2C1 (some centres not stated) |  | 10.1 µM and 8.5 µM | 5.67 µM | 12.3 µM and 13.1 µM | 2.09 µM | 9.96 µM and 8.4 µM |  | 9.68 µM | 7.25 µM | 15.5 µM and 8.62 µM | 0.0282 µM | 6.88 µM and 26.1 µM | 5.37 µM | 11.3 µM and 10.3 µM |  | 0.106 µM | 13.7 µM | 23 µM and 34.8 µM | 7.28 µM | 13.8 µM and 11.3 µM
3 | O=c1ccc2ccc(O)cc2o1 |  | > 100 µM |  | > 100 µM |  | > 100 µM |  | > 100 µM |  | > 100 µM |  | > 100 µM |  | > 100 µM |  | > 100 µM |  | > 100 µM |  | > 100 µM
4 | C[C@H]1COC2=C1C(=O)C(=O)c1c2ccc2c1CCCC2(C)C |  | 2.74 µM |  | 22.9 µM |  | 46.3 µM |  | 19.6 µM |  | 21.1 µM |  | 52.6 µM |  | 2.08 µM |  | > 39.5 µM |  | 4.19 µM |  | 29.2 µM
5 | CC(=O)OC1COC(Nc2nc(N)n(C)c(=O)c2N=O)C(OC(C)=O)C1OC(C)=O (configuration not stated) |  | > 10 µM |  | > 10 µM |  | > 10 µM |  | > 10 µM |  | > 10 µM |  | > 10 µM |  | > 10 µM |  | > 10 µM |  | > 10 µM |  | > 10 µM
6 | Cc1sc2nc3n(c(=O)c2c1C)N=CN(c1ccc(F)cc1)C3 |  | > 100 µM |  | > 100 µM |  | 49 µM |  | > 100 µM |  | > 100 µM |  | > 100 µM |  | > 100 µM |  | > 100 µM |  | > 100 µM |  | > 100 µM
7 | c1ccc(CN2CCN3CCN(CC2)CCN(Cc2ccccc2)CC3)cc1 |  | 12.6 µM |  | 23.3 µM |  | 16.4 µM |  | 23.3 µM |  | 16.9 µM |  | 27.5 µM |  | 29.6 µM |  | 26.1 µM |  | 5.06 µM |  | 22.1 µM
8 | Cc1ccc(NC(=O)CSC(N)=O)cc1C |  | > 100 µM |  | > 100 µM |  | > 100 µM |  | > 100 µM |  | > 100 µM |  | > 100 µM |  | > 100 µM |  | > 100 µM |  | > 100 µM |  | > 100 µM
9 | CC1(C)CCc2c(c(N=Nc3ccc(F)cc3)c3ccccc3c2O)O1 |  | 32 µM |  | > 100 µM |  | > 100 µM |  | 42.8 µM |  | > 100 µM |  | 88.8 µM |  | 35.8 µM |  | 41 µM |  | > 100 µM |  | > 100 µM
10 | Oc1cc(Br)cc2cc(Cl)cnc12 |  | > 67.7 µM |  | > 40.6 µM |  | > 42 µM |  | 46.3 µM |  | 45.1 µM |  | 22.9 µM |  | > 55.5 µM |  | 7.23 µM |  | > 54.9 µM |  | 27.1 µM
11 | CCOC(=O)c1c(-c2cccc3ccccc23)c(C#N)c(=S)n(C2OC(COC(C)=O)C(OC(C)=O)C(OC(C)=O)C2OC(C)=O)c1C (configuration not stated) |  | > 100 µM |  | > 100 µM |  | > 100 µM |  | > 100 µM |  | > 100 µM |  | > 100 µM |  | > 100 µM |  | > 100 µM |  | > 100 µM |  | > 100 µM
12 | CCOC(=O)[C@@H]1ON2OC(OC3CCCC3(c3ccccc3)c3ccccc3)C(OC(C)=O)[C@H]3OC(=O)[C@@H]1C32 (some centres not stated) |  | > 100 µM |  | > 100 µM |  | > 100 µM |  | > 100 µM |  | > 100 µM |  | > 100 µM |  | > 100 µM |  | > 100 µM |  | > 100 µM |  | > 100 µM
13 | C=C1C(=O)OC2CC3(C)OC3CC/C(C)=C/C(OC(C)=O)C12 (configuration not stated) |  | 25.2 µM |  | 13.6 µM |  | 14.6 µM |  | 31.6 µM |  | 26.3 µM |  | 29.9 µM |  | 28.4 µM |  | 12.7 µM |  | 4.03 µM |  | 35.3 µM
14 | O=[N+]([O-])C(Cl)=C/C(=C(\Cl)SCc1ccccc1)[N+](=O)[O-] |  | 36.3 µM |  | 59.9 µM |  | 44.1 µM |  | 77.6 µM |  | 45.3 µM |  | 81.4 µM |  | > 100 µM |  | 18 µM |  | 32.3 µM |  | 91 µM
